Source: publication PMC4976316, “A pivotal role of vacuolar H^+-ATPase in regulation of lipid production in Phaeodactylum tricornutum” (Scientific Reports, 2016)

Target: T1, Vacuolar H^+-ATPase (V-ATPase) (Phaeodactylum tricornutum, UniProt B7G3I2+B7GCN4)
T1 construct: gene PHATRDRAFT_16442; native complex in microsomal membrane protein from algal cells, not purified; subunit genes not identified; with V-type proton ATPase subunit a; V-type proton ATPase catalytic subunit A; V-type proton ATPase subunit B; V-type proton ATPase subunit C; V-type proton ATPase subunit D; V-type proton ATPase subunit E; V-type proton ATPase subunit F; V-type proton ATPase subunit G; V-type proton ATPase subunit H; V-type proton ATPase subunit d
Assay: concanamycin A-sensitive ATPase activity (phosphate release) of microsomal membranes
Format: cell-based
Conditions: 100 nM BFA1 added to the growing culture, enzyme assayed afterwards in microsomes; days-long treatment, indirect effects possible

CO/C1=C\C(C)=C\[C@@H](C)[C@@H](O)[C@@H](C)C/C(C)=C/C=C/[C@H](OC)[C@@H]([C@@H](C)[C@@H](O)[C@H](C)[C@@]2(O)C[C@@H](O)[C@H](C)[C@@H](C(C)C)O2)OC1=O [BFA1, bafilomycin A1]
% decrease of V-ATPase activity at 100 nM: ~ 66%
